Where “and” joins values, the source holds several entries; their conditions need not be identical. Equal entries are not always repeated. Calls of active or inactive are those of the source.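 The calls were made as follows: active = compounds giving half or more protection of infected cells from virus-caused growth loss, again on retest; inactive = the rest.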 Where a SMILES comes first, the peptide text is derived from it.
Tested on: CEM cells HIV-1 protection, formazan growth assay
Assay: NCI AIDS Antiviral Assay
Details: for IC50: measured here: growth of uninfected CEM cells
In short: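 Protection of CEM cells against HIV-1 was scored from cell growth (soluble formazan) across five concentrations, with parallel uninfected cells. Lack of protection may reflect toxicity.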

O=C(Nc1ccccc1)c1cc(S(=O)(=O)NC2=NC(c3ccccc3)c3cc(Cl)ccc3N2)c(SSc2cc(Cl)c(C(=O)Nc3ccccc3)cc2S(=O)(=O)NC2=NC(c3ccccc3)c3cc(Cl)ccc3N2)cc1Cl (stereo not drawn)
EC50: > 200 µM
IC50: > 200 µM

O=S(=O)(c1ccccc1)C(CN1CCCCC1)S(=O)(=O)c1ccccc1
outcome: inactive

O=C(CCc1nnc2s/c(=C\c3ccc(Cl)cc3Cl)c(=O)n12)Nc1cc(Cl)c(Cl)cc1Cl
EC50: > 13.2 µM
IC50: > 13.2 µM

Cc1c(C)c2cc3ccoc3cc2oc1=O
EC50: > 83.2 µM
IC50: > 83.2 µM

COc1cc2ccc(CC(=O)O)cc2cc1OC
outcome: inactive

NCCCCCS(=O)(=O)O
EC50: > 9330 µM
IC50: > 9330 µM

CC(=O)OC1C[C@H]2C(OC(=O)c3ccccc3)C3C4(OC(C)=O)COC4C[C@H](OC(C)=O)[C@@]3(C)C(OC(C)=O)[C@H](OC(C)=O)C(=C1C)C2(C)C (stereo partly drawn)
EC50: > 35.5 µM
IC50: > 35.5 µM

CC(=O)Oc1c2c(c(OC(C)=O)c3c1n(C(C)=O)c1ccccc1n3C(C)=O)n(C(C)=O)c1ccccc1n2C(C)=O
EC50: > 33.1 µM
IC50: 5.89 µM

C/C(O)=C(/C=N/C(=S)Nc1ccc(S(N)(=O)=O)cc1)C(=O)Nc1ccccc1C
EC50: > 200 µM
IC50: > 200 µM

Cc1cc2nc3nc(N)nc(NS(=O)(=O)c4cc(C)c(Cl)cc4S)n3c2cc1C
EC50: 102 µM
IC50: 380 µM

COCOCC1CCCN1CN1CCC[C@H]1COCOC (stereo partly drawn)
EC50: > 200 µM
IC50: 107 µM

CCOC(=O)C1C(=O)CC(O)(c2ccccc2)C(C(=O)OCC)C1c1ccc(OC)cc1 (stereo not drawn)
EC50: > 200 µM
IC50: 5.01 µM

CC(=O)NNc1nc(C)c(C(=O)NNC(=O)C(=O)Nc2ccc(Cl)cc2)s1
outcome: inactive

O=C(COc1ccc(Cl)cc1)N1CCN(C(=O)COc2ccc(Cl)cc2)c2ccccc21
EC50: > 11 µM
IC50: > 11 µM

O=C(O)c1cc(I)cc(I)c1O.O=[N+]([O-])C1CCC(O)C2[N-]CCCC21.[Cu+] (stereo not drawn)
EC50: > 200 µM
IC50: 5.62 µM

CNC(=O)N1N[C@H](c2ccccc2)[C@@H]1c1ccccc1
EC50: > 200 µM
IC50: 42.7 µM

O=S(=O)(O)c1cc2ccc1/C=C\c1ccc(cc1S(=O)(=O)O)N=Nc1ccc(c(S(=O)(=O)O)c1)/C=C\c1ccc(cc1S(=O)(=O)O)N=N2
outcome: active

CC1(C)CSCC(C)(C)C2(C=CC=CC=N2)C1=O (stereo not drawn)
EC50: > 191 µM
IC50: 26.3 µM

C=CCNC(=O)CN1NN=C(c2ccccc2)N1
EC50: > 107 µM
IC50: 93.3 µM

O=c1[nH]c(NCc2ccc(Cl)cc2)nc2nc[nH]c12
EC50: > 200 µM
IC50: 55 µM

CCc1c(C)c(C#N)c(=S)n(C2OC(CO)C(O)C(O)C2O)c1C (stereo not drawn)
EC50: > 200 µM
IC50: > 200 µM

CCOP(=O)(CN1CCNCCN(CP(=O)(OCC)OCC)CC1)OCC
EC50: > 100 µM
IC50: > 100 µM

COc1cc(/C=C/C(=O)c2sc(-n3nc(-c4ccccc4)cc3-c3ccccc3)nc2C)ccc1O
EC50: > 14.5 µM
IC50: > 14.5 µM

COC(=O)CSc1n[nH]c(-c2ccccc2)n1
EC50: > 1000 µM
IC50: 372 µM

CCN(CC)C(=S)[S][Bi]([S]C(=S)N(CC)CC)[S]C(=S)N(CC)CC
EC50: > 7.94 µM
IC50: 0.11 µM

CCCCCSCCCCCCCC(=O)O
EC50: > 200 µM
IC50: 58.9 µM

C/C(CC(O)(C(F)(F)F)C(F)(F)F)=N\N
EC50: > 200 µM
IC50: > 200 µM

CCNc1ncnc2c1ncn2C1OC(CO)CC1F (stereo not drawn)
EC50: > 224 µM
IC50: > 224 µM

CC(=O)c1ccc(-c2oc(-c3ccccc3)cc2-c2ccc3c(c2)OCO3)s1
EC50: > 200 µM
IC50: 22.9 µM

NNC(=O)C(=O)NN=C(C(Cl)(Cl)CO)C(Cl)(Cl)CO
EC50: > 20.4 µM
IC50: > 20.4 µM

Brc1c(OCc2ccccc2)ccc2ccccc12
EC50: > 200 µM
IC50: 191 µM

N=C(N)SCc1cn2ccccc2n1
EC50: > 891 µM
IC50: 50.1 µM

Cn1cnnc1SC(F)(F)c1nc2ccccc2o1
EC50: 191 µM
IC50: > 200 µM

CCCCCCCCCCCCCCCCCC(=O)OC[C@H](COP(=O)(O)OCCNC(=O)CCC(=O)OCCC=C(c1cc(Cl)c(OC)c(C(=O)OC)c1)c1cc(Cl)c(OC)c(C(=O)OC)c1)OC(=O)CCCCCCCCCCCCCCCCC
EC50: > 100 µM
IC50: > 100 µM

c1ccc(OCc2nnc3n2N=C(c2ccccc2)CS3)cc1
outcome: inactive

CCOC(=O)C(Cl)(Cl)/S(=N\S(=O)(=O)c1ccccc1)NC(=O)c1ccccc1 (stereo not drawn)
EC50: > 200 µM
IC50: > 200 µM

CCCCNC1C2CCC(C)(C1O)C2(C)C (stereo not drawn)
EC50: > 200 µM
IC50: 174 µM

CCCCCCCCCCCC(C(=O)O)C(=O)O
EC50: > 138 µM
IC50: > 138 µM

CSC(SC)=C1C(=O)N(c2ccccc2)N=C1C
EC50: > 200 µM
IC50: 37.2 µM

COCCOCCOCCOCCOCCOCCOCCOCCOCCOCCOCCOCCOCCOCCOCCOCCOCC(=O)N(CCn1ccc(N)nc1=O)CCn1cnc2nc(N)[nH]c(=O)c21
EC50: > 117 µM
IC50: > 117 µM

CCOC(=O)c1c(-c2ccccc2)c(-c2ccccc2)cn1C
EC50: > 200 µM
IC50: 46.8 µM

NCCCNCCCCN1CC1
EC50: > 200 µM
IC50: 1.17 µM

C/C(=N\O)c1ccc(S(=O)(=O)c2ccc([N+](=O)[O-])cc2)cc1
EC50: > 200 µM
IC50: > 200 µM

CC1(C)OCC(C2OC3OC(C)(C)OC3C2OC(=S)SSC(=S)OC2C(C3COC(C)(C)O3)OC3OC(C)(C)OC32)O1 (stereo not drawn)
EC50: > 200 µM
IC50: 16.6 µM

C=CC[C@H](C[C@H](C[C@H](C[C@H](C[C@H](C[C@H](C[C@H](C[C@H](C[C@H](C[C@H](CCCCC)OC)OC)OC)OC)OC)OC)OC)OC)OC)OC
EC50: > 200 µM
IC50: 115 µM

CN(c1nc(=[N+](C)C)ss1)C1CCCCC1
outcome: inactive

C=C(CS(=O)(=O)c1ccccc1)[P+](c1ccccc1)(c1ccccc1)c1ccccc1
outcome: inactive

COc1ccc(-c2nc(-c3cnccn3)n(COCCO)n2)cc1
EC50: > 200 µM
IC50: > 200 µM

CC1(C)CCCCCCCCCC(C)(CCCO)C1=O (stereo not drawn)
EC50: > 200 µM
IC50: 26.9 µM

CC1=C[P+](Cc2ccccc2)(c2ccccc2)CC1 (stereo not drawn)
IC50: 186 µM and 72.4 µM

CCN(C(=O)c1ccc([N+](=O)[O-])cc1)C(c1ccccc1)P(=O)(c1ccccc1)c1ccccc1 (stereo not drawn)
outcome: inactive

CCOC(=O)c1c(C(F)(F)F)c2cc(C(=O)C(F)(F)F)c3ccccc3c2n1C
EC50: > 42.7 µM
IC50: > 42.7 µM

O=C1CC2CCC(C1)N2CC1COc2ccccc2O1 (stereo not drawn)
EC50: > 200 µM
IC50: > 200 µM

CC(=O)NC(CCC(=O)c1ccc(Cl)cc1Cl)(C(=O)O)C(=O)O
EC50: > 200 µM
IC50: > 200 µM

N#Cc1c(C#N)c(-c2ccccc2)n(/N=C\c2ccccc2)c1N
EC50: > 200 µM
IC50: 14.5 µM

Cc1c(C)c2cc3c(cc2oc1=O)OCC3
EC50: > 83.2 µM
IC50: 55 µM

Nc1nccc(NCC2(CO)CCC2)n1
EC50: > 200 µM
IC50: > 200 µM

O=C1/C(=C/c2cccc([N+](=O)[O-])c2)CCc2ccccc21
EC50: > 9.77 µM
IC50: > 9.77 µM

O=C(O)C1CSCN1C(=O)c1ccccc1SSc1ccccc1C(=O)N1CSCC1C(=O)O (stereo not drawn)
EC50: 85.1 µM
IC50: > 100 µM

O=C1CC2C3CC1C2C(=O)O3 (stereo not drawn)
EC50: > 200 µM
IC50: > 200 µM

CNC1(C#N)CCN(Cc2ccccc2)CC1
EC50: > 200 µM
IC50: > 200 µM

CCOc1ccc(-n2c(=O)c3nn4c(=O)n(-c5ccc(OCC)cc5)c(=O)c4nn3c2=O)cc1
EC50: > 200 µM
IC50: > 200 µM

CCOc1ccccc1Nc1nc(C)c(C(=O)CC(=O)C(=O)Nc2ccccc2)s1
EC50: > 158 µM
IC50: 57.5 µM

CCCCNC(=O)OCC(COc1ccccc1OC)OC(=O)NCCCC (stereo not drawn)
EC50: > 66.1 µM
IC50: > 66.1 µM

CC(=O)OC1COC(n2c(-c3ccc(Cl)cc3)cc(-c3ccccc3)c(C#N)c2=S)C(OC(C)=O)C1OC(C)=O (stereo not drawn)
EC50: > 200 µM
IC50: > 200 µM

CN1C(=O)C(N=Nc2ccc([N+](=O)[O-])cc2)SC1=S (stereo not drawn)
EC50: > 100 µM
IC50: 10.7 µM and > 12.6 µM

[O-][n+]1c(-c2ccccc2)oc2ccccc21
EC50: > 9.55 µM
IC50: > 9.55 µM

C[Si]1(C)C(c2ccccc2)=CC2C(c3ccccc3)(c3ccccc3)OC21c1ccccc1 (stereo not drawn)
EC50: > 4.27 µM
IC50: 1.17 µM

CCOC(=O)c1cnc(-n2[nH]c3c(c2=O)CCCC3)[nH]c1=O
EC50: > 151 µM
IC50: 29.5 µM

O=[N+]([O-])c1ccc2oc(=Nc3ccccc3)c(Nc3ccccc3)nc2c1
EC50: > 200 µM
IC50: 166 µM

COc1cc(SSc2cc(OC)cc([N+](=O)[O-])c2N)c(N)c([N+](=O)[O-])c1
EC50: 4.47 µM
IC50: 15.5 µM

[Pd+2].[S-]c1ncccn1.[S-]c1ncccn1
EC50: > 200 µM
IC50: 0.107 µM

CC1C(=O)CC[C@@]2(C)C(=O)CCCC12O (stereo partly drawn)
outcome: inactive

COc1ccc2c(c1)c1c(n2CCN2CCCCC2)-c2ccccc2CC1
EC50: > 200 µM
IC50: 13.2 µM

COc1ccc(N2C(=O)CC(=O)N(C(=O)COc3ccc(OCC(=O)N4C(=O)CC(=O)N(c5ccc(OC)cc5)C4=S)cc3)C2=S)cc1
EC50: > 200 µM
IC50: 50.1 µM

O=C(N/N=C/c1ccc(Cl)cc1Cl)c1ccccc1SSc1ccccc1C(=O)N/N=C/c1ccc(Cl)cc1Cl
EC50: 38.9 µM
IC50: 178 µM

COC(=O)[C@H](Cc1c[nH]c2ccccc12)NC(=O)OCC1OC(n2cc(C)c(=O)[nH]c2=O)CC1N=[N+]=[N-] (stereo partly drawn)
EC50: > 158 µM
IC50: 132 µM

CCC(C)C(NC(=O)C(CCCN=C(N)N)NC(=O)C(CC(=O)O)NC(=O)C(Cc1cnc[nH]1)NC(=O)C(N)CC(C)C)C(=O)NC(C(=O)NC(CC(C)C)C(=O)NC(C(=O)NC(Cc1cnc[nH]1)C(=O)O)C(C)O)C(C)CC (stereo not drawn) (H-LHDRIILTH-OH; configuration not given here)
EC50: > 44.7 µM
IC50: > 44.7 µM

Cc1cc(NC2=CC(=O)C(=O)c3ccccc32)no1
EC50: > 200 µM
IC50: 5.89 µM

Cc1cccc(NC(=O)Nc2ccccc2)n1
EC50: > 200 µM
IC50: 97.7 µM

CCc1ccc(Nc2cc(=O)n(C)c(SCc3ccccc3)n2)cc1
EC50: > 200 µM
IC50: > 200 µM

CCCN1CN(c2ccccc2)C2(CCN(CCCC(=O)c3ccc(F)cc3)CC2)C1=O
EC50: > 200 µM
IC50: 3.02 µM

CC1=CCC[C@@H]2C1(C)CCC(C)[C@@]2(C)CC1=CC(=O)C=CC1=O (stereo partly drawn)
EC50: > 50.1 µM
IC50: 11.5 µM

N#CSC#Cc1ccc(C#CSC#N)cc1
EC50: > 200 µM
IC50: 2.4 µM

Source: PubChem BioAssay AID179 (DTP/NCI, 2004)
